In US20180303807A1, “ANDROGEN RECEPTOR LIGANDS” (DUKE UNIVERSITY, priority 2015, published 2018):

What was measured:
Format in all cases: cell-based
AR [1] = target: T1, AR (Homo sapiens, UniProt P10275); assay: Reporter gene assay, AR transcriptional (MMTV-Luc) in CV1 cells; conditions: pcDNA-AR + MMTV-Luc, 0.1 nM R1881 plus test compound, 24 hrs, read-out: B1 = AR transcriptional IC50 (μM) in CV1 cells
T1 construct: expressed in transfected cells; host or cells: CV1 cells
T1 sequence (P10275 1-920): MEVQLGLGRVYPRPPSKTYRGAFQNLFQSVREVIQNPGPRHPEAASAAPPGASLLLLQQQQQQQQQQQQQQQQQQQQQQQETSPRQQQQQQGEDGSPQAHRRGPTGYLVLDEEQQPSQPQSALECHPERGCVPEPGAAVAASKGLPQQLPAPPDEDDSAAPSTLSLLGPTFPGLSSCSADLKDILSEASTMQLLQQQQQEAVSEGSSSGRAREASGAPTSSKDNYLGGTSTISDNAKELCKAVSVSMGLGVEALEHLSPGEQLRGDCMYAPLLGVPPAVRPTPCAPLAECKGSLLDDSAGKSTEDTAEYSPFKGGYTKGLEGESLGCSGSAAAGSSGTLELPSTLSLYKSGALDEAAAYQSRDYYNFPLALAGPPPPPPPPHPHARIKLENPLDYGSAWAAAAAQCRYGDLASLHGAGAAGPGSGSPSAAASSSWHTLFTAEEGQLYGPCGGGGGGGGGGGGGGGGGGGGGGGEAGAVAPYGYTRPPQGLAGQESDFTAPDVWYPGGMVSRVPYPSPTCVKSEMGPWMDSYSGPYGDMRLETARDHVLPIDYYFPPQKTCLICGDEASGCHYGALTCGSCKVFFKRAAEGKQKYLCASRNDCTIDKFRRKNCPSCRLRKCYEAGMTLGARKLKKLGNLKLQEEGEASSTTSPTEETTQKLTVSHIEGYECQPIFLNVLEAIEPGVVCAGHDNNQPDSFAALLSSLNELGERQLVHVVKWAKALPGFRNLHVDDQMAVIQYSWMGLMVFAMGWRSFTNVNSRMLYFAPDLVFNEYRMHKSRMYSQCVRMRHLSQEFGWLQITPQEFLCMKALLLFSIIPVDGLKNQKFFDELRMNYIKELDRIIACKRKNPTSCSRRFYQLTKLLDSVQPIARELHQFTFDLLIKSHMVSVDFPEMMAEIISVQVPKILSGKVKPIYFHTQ
Method in brief: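 CV1 cells transiently co-transfected with human AR, MMTV-Luc reporter and Renilla-Luc (transfection efficiency and toxicity read-out), then stimulated 24 h with 0.1 nM R1881 plus increasing test compound concentrations. Firefly and Renilla luciferase quantified by dual-luciferase assay; IC50 derived from concentration-response.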

CV1 cells = assay: Toxicity of test compound in the CV1 reporter gene assay (Renilla-Luc)
Procedure: Reporter Gene Assay (IC50 determination, Table 2, B1-B3). CV1 cells were seeded into 96-well cell culture plates and transfected with Lipofectin. For AR transcriptional assays, the DNA mixture consisted of pcDNA-AR, MMTV-Luc (androgen responsive reporter gene), and Renilla-Luc (for assessing transfection efficiency and toxicity). Following overnight incubation, cells were induced with hormone (0.1 nM R1881 (synthetic AR agonist) plus increasing concentrations of test compound) for 24 hrs. Cells were lysed and luciferase activity was quantified using Dual Luciferase Reagent (DLR). IC50 determination was assessed using GraphPad Prism software.

AR [2] = assay: Real-time PCR of AR target gene transcription in LNCaP-AR (AR overexpressing) cells, CRPC model; parameters: key to B5 = Relative antagonist activity (plus 0.1 nM R1881) of test compounds (20 μM) in AR overexpressing LNCaP cells (NKX3.1 AR target gene) / B7 = Relative antagonist activity (plus 0.1 nM R1881) of test compounds (20 μM) in AR overexpressing LNCaP cells (PSA AR target gene): a score of 1 indicates higher antagonist efficacy (highly desired activity) than benchmark compound enzalutamide; a score of 2 indicates equal antagonist efficacy to enzalutamide (desirable); a score of 3 indicates antagonist efficacy between enzalutamide and bicalutamide (less desirable activity); a score of 4 indicates antagonist efficacy equal to bicalutamide (liability); a score of 5 indicates antagonist efficacy worse than bicalutamide (liability); key to B4 = Relative agonist activity (no R1881) of test compounds (20 μM) in AR overexpressing LNCaP cells (NKX3.1 AR target gene) / B6 Relative agonist activity (no R1881) of test compounds (20 μM) in AR overexpressing LNCaP cells (PSA AR target gene): a score of 1 indicates less agonism (highly desired activity) than benchmark compound enzalutamide; a score of 2 indicates equal agonism to enzalutamide (desirable); a score of 3 indicates agonism between enzalutamide and bicalutamide (less desirable activity); a score of 4 indicates equal agonism to bicalutamide (liability); a score of 5 indicates higher agonism than bicalutamide (liability); conditions: for B4 = Relative agonist activity (no R1881) of test compounds (20 μM) in AR overexpressing LNCaP cells (NKX3.1 AR target gene): no R1881, NKX3.1 gene; for B4 = Relative agonist activity (no R1881) of test compounds (20 μM) in AR overexpressing LNCaP cells (NKX3.1 AR target gene) / B6 Relative agonist activity (no R1881) of test compounds (20 μM) in AR overexpressing LNCaP cells (PSA AR target gene) / B5 = Relative antagonist activity (plus 0.1 nM R1881) of test compounds (20 μM) in AR overexpressing LNCaP cells (NKX3.1 AR target gene) / B7 = Relative antagonist activity (plus 0.1 nM R1881) of test compounds (20 μM) in AR overexpressing LNCaP cells (PSA AR target gene): score vs enzalutamide/bicalutamide; for B5 = Relative antagonist activity (plus 0.1 nM R1881) of test compounds (20 μM) in AR overexpressing LNCaP cells (NKX3.1 AR target gene): plus 0.1 nM R1881, NKX3.1 gene; for B7 = Relative antagonist activity (plus 0.1 nM R1881) of test compounds (20 μM) in AR overexpressing LNCaP cells (PSA AR target gene): plus 0.1 nM R1881, PSA gene
Procedure: Real-Time PCR (CRPC model of AR overexpressing prostate cancer cells, Table 2, B4-B7). LNCaP-AR (AR overexpressing cells) cells were seeded in 12-well plates in RPMI 1640 (8% charcoal-stripped fetal calf serum (CFS)). […] AR target gene transcription (PSA, NKX3.1, FKBP5) was assessed by realtime PCR.
For B4-B7, scoring system is based on the relative AR target gene agonist/antagonist activity of test compounds when compared to benchmark compounds enzalutamide or bicalutamide. […] The lack of agonist activity is desirable for therapies intended to treat CRPC. For B4 and B6, a score of 1 indicates less agonism (highly desired activity) than benchmark compound enzalutamide, a score of 2 indicates equal agonism to enzalutamide (desirable), a score of 3 indicates agonism between enzalutamide and bicalutamide (less desirable activity), a score of 4 indicates equal agonism to bicalutamide (liability), and a score of 5 indicates higher agonism than bicalutamide (liability). For B5 and B7 a score of 1 indicates higher antagonist efficacy (highly desired activity) than benchmark compound enzalutamide, a score of 2 indicates equal antagonist efficacy to enzalutamide (desirable), a score of 3 indicates antagonist efficacy between enzalutamide and bicalutamide (less desirable activity), a score of 4 indicates antagonist efficacy equal to bicalutamide (liability), and a score of 5 indicates antagonist efficacy worse than bicalutamide (liability) For B9, Compounds that degrade AR (greater than 50% degradation at 10 μM) are indicated.

IC50 (AR [1]) | Compound | B2 = % Toxicity of test compound (20 μM) (CV1 cells) | B3 = % Toxicity of test compound (60 μM) (CV1 cells) | B4 = Relative agonist activity (no R1881) of test compounds (20 μM) in AR overexpressing LNCaP cells (NKX3.1 AR target gene) (AR [2]) | B6 Relative agonist activity (no R1881) of test compounds (20 μM) in AR overexpressing LNCaP cells (PSA AR target gene) (AR [2]) | B5 = Relative antagonist activity (plus 0.1 nM R1881) of test compounds (20 μM) in AR overexpressing LNCaP cells (NKX3.1 AR target gene) (AR [2]) | B7 = Relative antagonist activity (plus 0.1 nM R1881) of test compounds (20 μM) in AR overexpressing LNCaP cells (PSA AR target gene) (AR [2]) | agonist activity in AR overexpressing LNCaP cells (model of CRPC) (AR [2]; benchmark compounds, AR overexpressing LNCaP cells)
5.5 µM | CC1(C)CC(=O)C2=C(C1)Nc1ccc3ccccc3c1C2c1cccc(C(F)(F)F)c1 (stereo not shown) [Compound A9] | 0% | 0% | 1 | 1 | 1 | 1 | –
8.6 µM | CC1(C)CC(=O)C2=C(C1)Nc1ccc3ccccc3c1C2c1ccncc1 (stereo not shown) [Compound A12] | 0% | 94% | 1 | 1 | 2 | 3 | –
> 10 µM | O=C1CCCC2=C1C(c1ccc([N+](=O)[O-])cc1)c1c(ccc3ncccc13)N2 (stereo not shown) [Compound A18] | 0% | 22% | – | 1 | – | 2 | –
> 10 µM | N#Cc1ccc(C2C3=C(CCCC3=O)Nc3ccc4ccccc4c32)cc1 (stereo not shown) [Compound A22] | 0% | 66% | – | 3 | – | 3 | –
– | CNC(=O)c1ccc(N2C(=S)N(c3ccc(C#N)c(C(F)(F)F)c3)C(=O)C2(C)C)cc1F [Enzalutamide, enzalutamide, reference compound] | – | – | – | – | – | – | does not possess agonist activity
